Reference: patent US20230331803A1, “CO-AGONISTS OF THE GLP-1 AND AMYLIN RECEPTORS” (priority 2020, published 2023)
“Also recorded” adds a separate entry of the source. Like-named read-outs stand apart in the source and are kept apart here. Starred links: 1 amine or outer side, 2 acyl side, 3 side chain; linkers in the order of their positions; H or OH if unused. Non-standard residues stand in square brackets, D forms with d. Groups on a side chain read outwards from the residue. *: point of attachment. C20 diacid = O=C(O)CCCCCCCCCCCCCCCCCCC(=O)*; C18 diacid = O=C(O)CCCCCCCCCCCCCCCCC(=O)*; γGlu = O=C(O)[C@H](CCC(=O)[*:2])N[*:1]; Desaminohistidyl = O=C(CCc1c[nH]cn1)*; εLys = N[C@@H](CCCCN[*:1])C(=O)[*:2]; Trx = NC[C@H]1CC[C@H](C(=O)O)CC1; AEEA = NCCOCCOCC(=O)O; Aib = CC(C)(N)C(=O)O

Assays:
[1] = biological target: T1, human amylin receptor (hAmyR3) (Homo sapiens, UniProt O60896+P30988); assay: Human amylin receptor in vitro potency assay (CRE-luciferase reporter, BHK cells); type: cell-based;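 note: BHK cells expressing human calcitonin receptor plus RAMP3 (amylin-3 receptor) with a CRE-luciferase reporter, agonist activity read as luminescence from cAMP-driven transcription, 7-point serial dilutions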
T1 construct: host or cells: BHK cells (Hollex-1 line: human calcitonin receptor (a) + CRE-Luc), further transfected with human RAMP3
T1 sequence (P30988 25-474): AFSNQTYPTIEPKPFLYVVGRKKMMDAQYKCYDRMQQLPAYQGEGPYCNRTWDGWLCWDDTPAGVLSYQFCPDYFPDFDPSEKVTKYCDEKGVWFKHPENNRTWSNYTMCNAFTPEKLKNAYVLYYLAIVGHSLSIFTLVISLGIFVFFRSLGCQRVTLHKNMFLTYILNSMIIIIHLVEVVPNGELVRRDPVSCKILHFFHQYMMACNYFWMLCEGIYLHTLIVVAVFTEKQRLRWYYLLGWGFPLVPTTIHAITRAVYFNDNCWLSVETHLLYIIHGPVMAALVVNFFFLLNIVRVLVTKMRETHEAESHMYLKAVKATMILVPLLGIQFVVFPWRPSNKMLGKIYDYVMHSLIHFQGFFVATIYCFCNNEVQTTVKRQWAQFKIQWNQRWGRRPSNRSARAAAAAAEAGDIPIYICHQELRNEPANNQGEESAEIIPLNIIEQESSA
T1 sequence (O60896 24-148): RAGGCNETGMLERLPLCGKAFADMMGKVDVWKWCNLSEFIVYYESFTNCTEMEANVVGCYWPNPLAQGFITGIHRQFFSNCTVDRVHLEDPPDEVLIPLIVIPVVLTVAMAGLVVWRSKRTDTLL
Source text: Activation of hAmyR3 leads to increased cellular concentrations of cAMP. Consequently, transcription is activated by promotors containing multiple copies of the cAMP response element (CRE). It is thus possible to measure hAmyR3 activity using a CRE-luciferase reporter gene introduced into Baby Hamster Kidney (BHK) cells co-expressing the hAmyR3.
The cell line was further transfected with human receptor modifying protein 3 (RAMP3) using standard methods. This turns the human calcitonin receptor into a human amylin-3(a) receptor.
(§1) Cells were aliquoted and stored at -180° C. until use.
The plate was incubated over night at 37° C. in 5% CO2. On the day of the assay, cells were washed three times in assay buffer. Serial dilutions (7-fold dilutions, 7 concentrations pr. compound and one well containing only assay buffer) of comparator compounds and GLP-1 receptor-amylin receptor co-agonists were performed in assay buffer often starting from approximately 10-100 nM in 96-well plates and 30 µL of each concentration added to the 384-well assay plate with cells. […] The assay plate was sealed, incubated at room temperature with gentle shaking for 5 minutes followed by 30 minutes incubation without shaking while protected from light. Luminescence was detected on a luminescence plate reader e.g. a Synergy 2 (BioTek).

human GLP-1 receptor = biological target: T2, human GLP-1 receptor (Homo sapiens, UniProt P43220); assay: Human GLP-1 receptor in vitro potency assay (CRE-luciferase reporter, BHK cells); type: cell-based
T2 construct: expressed in transfected cells; host or cells: BHK (Baby Hamster Kidney) cells, clone BHK 467-12A KZ-10, stably transfected, with CRE-luciferase reporter
T2 sequence (P43220 24-463): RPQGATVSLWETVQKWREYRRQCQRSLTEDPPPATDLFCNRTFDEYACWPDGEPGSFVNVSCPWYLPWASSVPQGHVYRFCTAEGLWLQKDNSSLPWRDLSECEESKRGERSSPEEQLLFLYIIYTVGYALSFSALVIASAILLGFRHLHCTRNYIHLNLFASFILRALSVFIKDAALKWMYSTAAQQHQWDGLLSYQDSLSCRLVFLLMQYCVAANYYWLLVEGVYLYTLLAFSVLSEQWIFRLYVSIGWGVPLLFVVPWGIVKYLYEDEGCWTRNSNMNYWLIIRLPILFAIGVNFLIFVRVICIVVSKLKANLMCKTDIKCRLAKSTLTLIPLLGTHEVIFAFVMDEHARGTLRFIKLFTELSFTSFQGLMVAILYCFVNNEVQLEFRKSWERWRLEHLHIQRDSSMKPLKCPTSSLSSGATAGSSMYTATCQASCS
Procedure: It is thus possible to measure GLP-1 receptor activity using a CRE-luciferase reporter gene introduced into Baby Hamster Kidney (BHK) cells co-expressing the GLP-1 receptor.
as §1
Plates were sealed and incubated at room temperature with gentle shaking for 30 minutes while protected from light. Luminescence was detected on a luminescence plate reader e.g. a Synergy 2 (BioTek).

[2] = Pharmacokinetic studies in Beagle dogs after oral administration of SNAC-based tablets; type: in vivo
Method in brief: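 Fasted male Beagle dogs received immediate-release oral tablets containing 3–4 mg test substance with 100–300 mg SNAC, optionally after ~3 nmol/kg s.c. SEQ ID NO: 237 10 min before. EDTA plasma sampled up to 240 h; LCMS concentrations analysed non-compartmentally.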

Sprague Dawley (SD) rats = assay: Acute food intake in ad libitum fed rats after a single subcutaneous administration; type: in vivo, rat; conditions: for Food intake relative to vehicle (%) 0-24 hr, 10 nmol/kg / Food intake relative to vehicle (%) 24-48 hr, 10 nmol/kg: rat, single administration;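 for all read-outs here: food intake monitored in the HM2 system, three rats per cage kept on a reversed light cycle, with food and water freely available after the subcutaneous dose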
Source text: Sprague Dawley (SD) rats from Taconic Europe, Denmark were used for the acute food intake experiments, wherein the principles of laboratory animal care were followed.
The rats arrived at least 10-14 days before the start of the experiment to allow acclimatisation to experimental settings. During this period, the animals were handled at least 2 times. Immediately upon arrival, rats were put on a reversed light cycle (dark from 11am - 11pm) and put in the HM2 system and ID chipped. Three rats were housed in each cage. […] The rats were dosed once according to body weight with a 0.01-3 mg/kg solution administered subcutaneously (sc). The time of dosing was recorded for each group.
After dosing, the rats were returned to their home cages, where they had access to food and water. […] At the end of the experimental session, the animals were euthanised.

[3] = dogs, oral administration (tablet)
[4] = Table 4a, BHK hAmyR3/CRE-Luc cells, 3 hours, read-out: Human AmyR3 potency [EC50 (pM)]
[5] = Table 4a, BHK cells expressing human GLP-1R, CRE-Luc, 3 hours, read-out: Human GLP-1R potency [EC50 (pM)]
[6] = male, Beagle, dog, in vivo, po, Tmax (hr)
[7] = male, Beagle, dog, in vivo, po, T½ (hr)

| Molecule | AUC/D [2, 3] [kg·h/L] | Cmax/D [2, 3] [kg/L] | Food intake relative to vehicle (%) 0-24 hr, 10 nmol/kg (Sprague Dawley (SD) rats; Table 6a) [%] | Food intake relative to vehicle (%) 24-48 hr, 10 nmol/kg (Sprague Dawley (SD) rats; Table 6a) [%] | EC50 [1, 4] [pM] | EC50 (human GLP-1 receptor; [5]) [pM] | Tmax [2, 3] [h] | T½ [2, 3] [h] | further results |
| --- | --- | --- | --- | --- | --- | --- | --- | --- | --- |
| CC[C@H](C)[C@H](NC(=O)[C@H](Cc1ccccc1)NC(=O)[C@H](CCC(=O)O)NC(=O)[C@H](CCCNC(=N)N)NC(=O)[C@H](C)NC(=O)[C@H](C)NC(=O)[C@H](CCC(N)=O)NC(=O)[C@H](CCC(=O)O)NC(=O)[C@H](CCC(=O)O)NC(=O)[C@H](CC(C)C)NC(=O)[C@H](Cc1ccc(O)cc1)NC(=O)[C@H](CO)NC(=O)[C@H](CO)NC(=O)[C@H](CCCCNC(=O)COCCOCCNC(=O)COCCOCCNC(=O)CC[C@H](NC(=O)[C@H]1CC[C@H](CNC(=O)CCCCCCCCCCCCCCCCCCC(=O)O)CC1)C(=O)O)NC(=O)[C@H](CC(=O)O)NC(=O)[C@H](CO)NC(=O)[C@@H](NC(=O)[C@H](Cc1ccccc1)NC(=O)[C@@H](NC(=O)CNC(=O)[C@H](CCC(=O)O)NC(=O)C(C)(C)NC(=O)[C@@H](N)Cc1c[nH]cn1)[C@@H](C)O)[C@@H](C)O)C(=O)N[C@@H](CCC(=O)O)C(=O)N[C@@H](Cc1c[nH]c2ccccc12)C(=O)N[C@@H](CC(C)C)C(=O)N[C@H](C(=O)N[C@@H](CCCNC(=N)N)C(=O)NCC(=O)N[C@@H](CCCNC(=N)N)C(=O)NCC(=O)N[C@@H](CCC(=O)O)C(=O)N[C@@H](C)C(=O)N[C@@H](CO)C(=O)N[C@@H](CCC(=O)O)C(=O)N[C@@H](CC(C)C)C(=O)N[C@@H](CO)C(=O)N[C@H](C(=O)N[C@@H](C)C(=O)N[C@@H](C)C(=O)N[C@@H](CC(C)C)C(=O)NCC(=O)N[C@@H](CCCNC(=N)N)C(=O)N[C@@H](CC(C)C)C(=O)N[C@@H](CO)C(=O)N[C@@H](C)C(=O)N[C@@H](CCC(=O)O)C(=O)N[C@@H](CC(C)C)C(=O)N[C@@H](Cc1c[nH]cn1)C(=O)N[C@@H](CCC(=O)O)C(=O)N[C@@H](CC(C)C)C(=O)N[C@@H](C)C(=O)N[C@H](C(=O)N[C@@H](CC(C)C)C(=O)N1CCC[C@H]1C(=O)N[C@@H](CCCNC(=N)N)C(=O)N[C@H](C(=O)N[C@@H](CCC(=O)O)C(=O)N[C@H](C(=O)NCC(=O)N[C@@H](CO)C(=O)NCC(=O)N[C@@H](CO)C(=O)N1CCC[C@H]1C(N)=O)[C@@H](C)O)[C@@H](C)O)[C@@H](C)O)[C@@H](C)O)C(C)C [Compound 0440] | 5.78 | 0.29 | 81 | 77 |  |  |  |  | EC50 [1]: 10.4 pM; EC50 (human GLP-1 receptor): 5.7 pM; Tmax ([2]; male, Beagle, dog, in vivo, dogs, oral administration (tablet), read-out: Tmax): 1.8 h; half-life ([2]; male, Beagle, dog, in vivo, dogs, oral administration (tablet), read-out: T½ (converted)): 32 h |
| H-H[Aib]EGTFTSDVSK([AEEA-AEEA-γGlu-C18 diacid])YLEEQAAREFIAWLVRGRGGGGGEASELSTAALGRLSAELHELATLPRTETGSGSP-NH2 [Compound 0640] |  |  | 28 | 66 | 6 | 2.3 |  |  | AUC/D ([2]; dog, in vivo, po): 7.57 kg·h/L; Cmax/D ([2]; dog, in vivo, po): 0.37 kg/L; Tmax [2, 6]: 1.5 h; half-life [2, 7]: 29 h |
| H-H[Aib]EGTFTSDVSRYLEEQAAREFIEWLVRGRK([AEEA-AEEA-γGlu-Trx-C20 diacid])GGGGEASELSTAALGRLSAELHELATLPRTETGSGSP-NH2 [Compound 0511] |  |  | 61 | 75 | 8.4 | 8.8 |  |  | AUC/D ([2]; dog, in vivo, po): 3.80 kg·h/L; Cmax/D ([2]; dog, in vivo, po): 0.14 kg/L; Tmax [2, 6]: 2 h; half-life [2, 7]: 25 h |
| H-H[Aib]EGTFTSDVSSYLEGQAAK([AEEA-AEEA-γGlu-C18 diacid])EFIAWLVRGRGGGGGGGGGEASELSTAALGRLSAELHELATLPRTETGSGSP-NH2 [Compound 0052] |  |  | 42 | 86 | 19.4 | 17 |  |  |  |
| H-H[Aib]EGTFTSDVSSYLEEQAAREIFAWLVRGRK([AEEA-AEEA-γGlu-Trx-C20 diacid])GGGGEASELSTAALGRLSAELHELATLPRTETGSGSP-NH2 [Comparator compound 0167, reference compound] |  |  |  |  |  |  |  |  | EC50 ([1]; Table 4c, further comparator compounds, read-out: Human AmyR3 potency [EC50 (pM)]): 10.9 pM; Ability to agonise the amylin receptor, in words ([1]; Tables 4a-4c): full amylin potency; EC50 (human GLP-1 receptor; Table 4c, further comparator compounds): ≥ 10000 pM; Ability to agonise the GLP-1 receptor, in words (human GLP-1 receptor; Tables 4a-4c): impaired their ability to agonise (activate) the GLP-1 receptor; also recorded: impaired GLP-1 activity; Food intake relative to vehicle (%) 0-24 hr, 10 nmol/kg (Sprague Dawley (SD) rats; Table 6b): 85%; Food intake relative to vehicle (%) 24-48 hr, 10 nmol/kg (Sprague Dawley (SD) rats; Table 6b): 73%; Inhibition of food intake, in words (Sprague Dawley (SD) rats; rats, 10 nmol/kg): significantly less than in the case of compound 0120 |
| H-H[Aib]EGTFTSDVSSYLEGQAAK([AEEA-AEEA-γGlu-C18 diacid])EFIAWLVRGRGGGEASELSTAALGRLSAELHELATLPRTETGSGSP-NH2 [Compound 0007] |  |  | 67 | 105 | 9.4 | 13.3 |  |  |  |
| Desaminohistidyl-AEGTFTSDVSSYLEEQAAREFIAWLVRGRK([AEEA-AEEA-γGlu-Trx-C20 diacid])EASELSTAALGRLSAELHELATLPRTETGSGSP-NH2 [Compound 0035] |  |  | 76 | 95 | 16 | 16.7 |  |  |  |
| HWEGTFTSDVSSYLEEK([εLys-AEEA-AEEA-γGlu-Trx-C20 diacid])AAREFIEWLVRGRGEASELSTAALGRLSAELHELATLPRTETGSGSP-NH2 [Compound 0434] |  |  | 39 | 105 | 13.9 | 11.8 |  |  |  |
| H-H[Aib]EGTFTSDVSSYLEGQAAK([εLys-AEEA-AEEA-γGlu-C18 diacid])EFIAWLVRGRGGGEASELSTAALGRLSAELHELATLPRTETGSGSP-NH2 [Compound 0044] |  |  | 40 | 82 | 9.1 | 16 |  |  |  |
| H-Aib-EGTFTSDVSSYLEEQAAREFIAWLVRGRP-K([2-[2-[2-[[2-[2-[2-[[(4S)-4-Carboxy-4-[[4-[(19-Carboxynonadecanoylamino)Methyl]Cyclohexanecarbonyl]Amino]Butanoyl]Amino]Ethoxy]Ethoxy]Acetyl]Amino]Ethoxy]Ethoxy]A … (peptide) peptide: H[Aib]EGTFTSDVSSYLEEQAAREFIAWLVRGRPK([AEEA-AEEA-γGlu-4‑(aminomethyl)cyclohexanecarbonyl-C20 diacid])GGGGEASELSTAALGRLSAELHELATLPRTETGSGSP-NH2 | 3.25 | 0.12 | 73 | 53 |  |  | 3.0 | 25 |  |
| H-Aib-EGTFTSDVS-K([2-[2-[2-[[2-[2-[2-[[(4S)-4-Carboxy-4-[[4-[(19-Carboxynonadecanoylamino)Methyl]Cyclohexanecarbonyl]Amino]Butanoyl]Amino]Ethoxy]Ethoxy]Acetyl]Amino]Ethoxy]Ethoxy]Acetyl])-YLEEQAAREFIA … (peptide) peptide: H-H[Aib]EGTFTSDVSK([AEEA-AEEA-γGlu-4‑(aminomethyl)cyclohexanecarbonyl-C20 diacid])YLEEQAAREFIAWLVRGRGGGGGEASELSTAALGRLSAELHELATLPRTETGSGSP-NH2 | 11.10 | 0.45 | 50 | 45 |  |  | 2.0 | 27 |  |
| HWEGTFTSDVSSYLEEQAAR-K([2-[2-[2-[[2-[2-[2-[[(4S)-4-Carboxy-4-[[4-[(19-Carboxynonadecanoylamino)Methyl]Cyclohexanecarbonyl]Amino]Butanoyl]Amino]Ethoxy]Ethoxy]Acetyl]Amino]Ethoxy]Ethoxy]Acetyl])-FIEWLVR … (peptide) peptide: HWEGTFTSDVSSYLEEQAARK([AEEA-AEEA-γGlu-4‑(aminomethyl)cyclohexanecarbonyl-C20 diacid])FIEWLVRGRGEGGGGGASELSTAALGRLSAELHELATLPRTETGSGSP-NH2 | 19.54 | 0.36 | 71 | 46 |  |  | 1.8 | 40 |  |
| H-Aib-EGTFTSDVSSYLEEQAAREFIAWLVRGR-K([(2S)-2-Amino-6-[[2-[2-[2-[[2-[2-[2-[[(4S)-4-Carboxy-4-[[4-[(19-Carboxynonadecanoylamino)Methyl]Cyclohexanecarbonyl]Amino]Butanoyl]Amino]Ethoxy]Ethoxy]Acetyl]Amino … (peptide) peptide: H[Aib]EGTFTSDVSSYLEEQAAREFIAWLVRGRK([εLys-AEEA-AEEA-γGlu-4‑(aminomethyl)cyclohexanecarbonyl-C20 diacid])GGGGEASELSTAALGRLSAELHELATLPRTETGSGSP-NH2 | 6.53 | 0.14 | 47 | 44 |  |  | 2.0 | 23 |  |
